By Kd is commonly meant the concentration at which binding is half-saturated.

T1 sequence (Q05278 other isoform, or with tags, fused parts or gaps L15P): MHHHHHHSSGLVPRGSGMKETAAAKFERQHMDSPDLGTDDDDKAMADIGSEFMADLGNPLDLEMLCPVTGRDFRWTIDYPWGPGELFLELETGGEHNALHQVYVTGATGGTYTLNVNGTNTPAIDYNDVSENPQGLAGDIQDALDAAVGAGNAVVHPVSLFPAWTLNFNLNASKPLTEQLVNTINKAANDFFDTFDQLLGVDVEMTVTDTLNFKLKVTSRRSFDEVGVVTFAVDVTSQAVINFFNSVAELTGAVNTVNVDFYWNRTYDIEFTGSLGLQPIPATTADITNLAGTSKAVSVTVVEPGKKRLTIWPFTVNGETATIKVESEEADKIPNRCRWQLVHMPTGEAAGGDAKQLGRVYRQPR

The first test concerns the target T1, Gp6 (Mycobacterium phage L5, UniProt Q05278, L15P).
T1 construct: pET-30a(+) vector-encoded N-terminal leader (additional residues up to the EcoRI site) (N); made in house; host or cells: E. coli BL21(DE3)
The experiment in a line: Direct ESI-MS assay of carbohydrate binding.
Conditions: not given
Also on record: species or system mycobacteriophage L5. How it is done:
Chemically synthesized fragments of mycobacterial arabinans and phenolic glycolypids were used to test the carbohydrate binding ability of recombinant Gp6. Association constants (Ka) for Gp6 binding to carbohydrate ligands were measured using the direct electrospray ionization mass spectrometry (ESI-MS) assay. The assay is based on the direct detection and quantification of the abundance of ligand-bound and unbound protein ions in the gas phase. All binding measurements were carried out at 25° C. and pH 7.2 using a 9.4T ApexQe FTICR mass spectrometer (Bruker, Billerica, Mass.). ESI was performed in aqueous ammonium acetate (100 mM) solutions prepared from stock solutions of protein and oligosaccharide. The single chain variable fragment (scFv) of the monoclonal antibody Se155-4 was used as reference protein to distinguish specific from nonspecific ligand binding with the protein during the ESI-MS measurements.
With `O=C(NCCCCCCCCO[C@H]1O[C@H](CO[C@H]2O[C@H](CO[C@H]3O[C@H](CO)[C@@H](O)[C@@H]3O[C@@H]3O[C@H](CO)[C@@H](O)[C@@H]3O)[C@@H](O[C@H]3O[C@H](CO)[C@@H](O)[C@@H]3O[C@@H]3O[C@H](CO)[C@@H](O)[C@@H]3O)[C@@H]2O)[C@@H](O)[C@@H]1O)C(F)(F)F` [compound 3, β-Araf-(1→2)-α-Araf-(1→5)[β-Araf-(1→2)-α-Araf-(1→3)]-α-Araf-(1→5)-α-Araf-octyl-NHCOCF3], the dissociation constant (Kd) was 278 µM.
The molecule `COc1ccc(O[C@@H]2O[C@@H](C)[C@H](O)[C@@H](O[C@@H]3O[C@@H](C)[C@H](O)[C@@H](O[C@@H]4O[C@@H](C)[C@@H](OC)[C@@H](OC)[C@@H]4OC)[C@H]3O)[C@H]2OC)cc1` [compound 10, 2,3,4-tri-O-CH3-α-Fucp-(1→3)-α-Rhap(1→3)-2-O-CH3-α-RhapOPMP] displayed a dissociation constant (Kd) of 1000 ± 500 µM.
Consider `COC[C@H]1O[C@@H](O[C@@H]2[C@@H](OC)[C@@H](OC)[C@H](O[C@H]3[C@H](Oc4ccc(OC)cc4)O[C@@H](C)[C@H](O)[C@H]3OC)O[C@H]2C)[C@H](O)[C@@H](OC)[C@@H]1O` [compound 13, 3,6-di-O-CH3-β-Glcp-(1→4)-2,3-di-O-CH3-α-Rhap-(1→2)-3-O-CH3-α-RhapOPMP], for which the equilibrium dissociation constant (Kd) is 417 µM.
As to `COc1ccc(O[C@@H]2O[C@@H](C)[C@H](O)[C@@H](O[C@@H]3O[C@@H](C)[C@H](O)[C@@H](O[C@@H]4O[C@@H](C)[C@@H](OC)[C@@H](O)[C@@H]4OC)[C@H]3O)[C@H]2O)cc1` [compound 11, 2,4-di-O-CH3-α-Fucp-(1→3)-α-Rhap(1→3)-α-Rhap-OPMP], the Kd was 333 µM.
On to `O=C(NCCCCCCCCO[C@H]1O[C@H](CO[C@H]2O[C@H](CO)[C@@H](O[C@H]3O[C@H](CO)[C@@H](O)[C@@H]3O[C@@H]3O[C@H](CO)[C@@H](O)[C@@H]3O)[C@@H]2O)[C@@H](O)[C@@H]1O)C(F)(F)F` [compound 7, β-Araf-(1→2)-α-Araf-(1→3)-α-Araf-(1→5)-α-Araf-octyl-NHCOCF3], for which the dissociation constant (Kd) is 909 µM.
On the same count and under the same terms, to `O=C(NCCCCCCCCO[C@H]1O[C@H](CO[C@H]2O[C@H](CO[C@H]3O[C@H](CO[C@H]4O[C@H](CO)[C@@H](O)[C@@H]4O)[C@@H](O)[C@@H]3O)[C@@H](O)[C@@H]2O)[C@@H](O)[C@@H]1O)C(F)(F)F` [compound 8, α-Araf-(1→5)-α-Araf-(1→5)-α-Araf-(1→5)-a-Araf-octyl-NHCOCF3] belongs 145 µM; to `O=C(NCCCCCCCCO[C@H]1O[C@H](CO[C@H]2O[C@H](CO[C@H]3O[C@H](CO)[C@@H](O)[C@@H]3O[C@@H]3O[C@H](CO[C@H]4O[C@H](CO)[C@@H](O)[C@H](O)[C@@H]4O[C@H]4O[C@H](CO)[C@@H](O)[C@H](O)[C@@H]4O[C@H]4O[C@H](CO)[C@@H](O)[C@H](O)[C@@H]4O)[C@@H](O)[C@@H]3O)[C@@H](O)[C@@H]2O)[C@@H](O)[C@@H]1O)C(F)(F)F` [compound 9, α-Manp-(1→2)-α-Manp-(1→2)-α-Manp-(1→5)-β-Araf-(1→2)-α-Araf-(1→5)-α-Araf-(1→5)-α-Araf-octyl-NHCOCF3], 385 µM; to `O=C(NCCCCCCCCO[C@H]1O[C@H](CO[C@H]2O[C@H](CO[C@H]3O[C@H](CO)[C@@H](O)[C@@H]3O)[C@@H](O)[C@@H]2O)[C@@H](O)[C@@H]1O)C(F)(F)F` [compound 5, α-Araf-(1→5)-α-Araf-(1→5)-α-Araf-octyl-NHCOCF3], 132 µM.
Molecule `O=C(NCCCCCCCCO[C@H]1O[C@H](CO[C@H]2O[C@H](CO[C@H]3O[C@H](CO)[C@@H](O)[C@@H]3O)[C@@H](O[C@H]3O[C@H](CO)[C@@H](O)[C@@H]3O)[C@@H]2O)[C@@H](O)[C@@H]1O)C(F)(F)F` [compound 6, α-Araf-(1→5)-[α-Araf-(1→3)]-α-Araf-(1→5)-α-Araf-octyl-NHCOCF3] gave a Kd of 417 µM.
For `COc1ccc(O[C@@H]2O[C@@H](C)[C@H](O)[C@@H](O[C@@H]3O[C@@H](C)[C@H](O)[C@@H](O[C@@H]4O[C@@H](C)[C@@H](OC)[C@@H](OC)[C@@H]4OC)[C@H]3O)[C@H]2O)cc1` [compound 12, 2,3,4-tri-O-CH3-α-Fucp-(1→3)-α-Rhap(1→3)-α-RhapOpPMP], the Kd was 286 µM. The Kd values of the last two molecules are within 1.5-fold of each other.
`O=C(NCCCCCCCCO[C@H]1O[C@H](CO[C@H]2O[C@H](CO[C@H]3O[C@H](CO)[C@@H](O)[C@@H]3O[C@@H]3O[C@H](CO[C@H]4O[C@H](CO)[C@@H](O)[C@H](O)[C@@H]4O[C@H]4O[C@H](CO)[C@@H](O)[C@H](O)[C@@H]4O)[C@@H](O)[C@@H]3O)[C@@H](O)[C@@H]2O)[C@@H](O)[C@@H]1O)C(F)(F)F` [compound 2, α-Manp-(1→2)-α-Manp-(1→5)-β-Araf-(1→2)-α-Araf-(1→5)-α-Araf-(1→5)-α-Araf-octyl-NHCOCF3] showed a Kd of 227 µM.
Take `O=C(NCCCCCCCCO[C@H]1O[C@H](CO[C@H]2O[C@H](CO[C@H]3O[C@H](CO)[C@@H](O)[C@@H]3O[C@@H]3O[C@H](CO[C@H]4O[C@H](CO)[C@@H](O)[C@H](O)[C@@H]4O)[C@@H](O)[C@@H]3O)[C@@H](O)[C@@H]2O)[C@@H](O)[C@@H]1O)C(F)(F)F` [compound 1, α-Manp-(1→5)-β-Araf-(1→2)-α-Araf-(1→5)-α-Araf-(1→5)-α-Araf-octyl-NHCOCF3]: binding was characterised by a dissociation constant (Kd) of 256 µM.

The same test, now with this note: 25° C., pH 7.2, direct ESI-MS assay.
For the molecule `COc1ccc(OC2OC(C)C(O)C(OC3OC(C)C(O)C(O)C3O)C2OC)cc1` (stereo not drawn) [compound 15, α-Rhap-(1→3)-2-O-CH3-α-RhapOPMP], the “Association constants (Ka) for Gp6” value is reported as “NB^3”.
With “6-O-CH3-β-Glcp-(1→4)-2,3-di-O-CH3-α-Rhap-(1→2)-3-O-CH3-α-RhapOPMP [compound 14]”, the “Association constants (Ka) for Gp6” value is “NB^3”.
For the molecule `O=C(NCCCCCCCCO[C@H]1O[C@H](CO[C@H]2O[C@H](CO[C@H]3O[C@H](CO)[C@@H](O)[C@@H]3O[C@@H]3O[C@H](CO)[C@@H](O)[C@@H]3O)[C@@H](O)[C@@H]2O)[C@@H](O)[C@@H]1O)C(F)(F)F` [compound 4, β-Araf-(1→2)-α-Araf-(1→5)-α-Araf-(1→5)-α-Araf-octyl-NHCOCF3], the “Association constants (Ka) for Gp6” value is reported as “NB^3”.

Values taken from patent publication US9885713B2, “Diagnosis and treatment of mycobacteria infections” (priority 2013, dated 2018).
